This is an account of results in US10463590B1, “Antiplaque and dental health oral formulation” (priority 2018, dated 2019).

What all share (format): cell-based
Experiment [1] deals with Streptococcus mutans and Streptococcus sorbinus. Put plainly: Bacteriostatic effect, broth macro-dilution assay (OD600) after 24 h. The note with it: 10 μg/ml amoxicillin (FIG. 7A). The method, then: (§1) Two oral Streptococcus species, i.e., Streptococcus mutans AU159 strain and Streptococcus sorbinus SL1 strain, obtained from the American Type Culture Collection (Manassas, Va.), were tested in their two morphological forms: cocci planktonic form and biofilm. The stocks of both species were cultured in commonly used conditions, i.e., BHI broth (Remel, San Diego, Calif.) without antibiotics at 37° C. with 5% CO2, in sterile two-position cap 5 ml polypropylene test tubes.
Growth inhibition of Streptococcus mutans and Streptococcus sorbinus was tested using standard macro-dilution method according to guidance of American Society for Microbiology to establish MIC (Minimal Inhibitory Concentration) value. Briefly, sterile 3 ml test two-position capped tubes containing 1 ml BHI broth, supplemented with the test mix was inoculated with 1×10^7 CFU/ml of the homogenous bacterial suspension. The tubes were then incubated at 37° C. with 5% CO2 and growth inhibition as a decrease in the optical density (OD600) was measured after 24 h. The entire experiment was repeated three times for each strain. Control cultures were treated with DMSO (i.e., 0.1-0.4% v/v) alone or amoxicillin (i.e. 10 μg/ml).

In experiment [2] the test system is biofilm of Streptococcus mutans and Streptococcus sorbinus. Put plainly: Preventive effect on biofilm formation, crystal violet staining assay after 24 h. The note with it: 10 μg/ml amoxicillin (FIG. 7C). As for the experimental part:
as §1
Preventive effect of the test mix against biofilm of Streptococcus mutans and Streptococcus sorbinus was evaluated by the commonly used crystal violet (CV) staining method, according to guidance of American Society for Microbiology to establish MBFC (Minimal Biofilm Formation Concentration) value. Briefly, 1×10^7 CFU/ml from homogeneous bacterial culture in BHI broth containing 1% sucrose, as a standard approach, was inoculated into saliva-coated 96-well plates and supplemented with the test mix. Control wells were treated with DMSO (i.e., 0.1-0.4% v/v) alone or amoxicillin (i.e., 10 μg/ml). All plates were then incubated at 37° C. with 5% CO2 for 24 h. […] The biofilms were carefully washed three times with 1×PBS (phosphate-buffered saline), and 200 μl of methanol was added to each well to extract a dye which was measured at 595 nm using a spectrophotometer (Molecular Device, Spectra Max 340). […]

The subject of experiment [3] is pre-existing biofilm of Streptococcus mutans and Streptococcus sorbinus. Put plainly: Pre-formed biofilm killing (biocidal) effect, alamar Blue assay after 24 h. The note with it: 500 μg/ml amoxicillin (FIG. 7E). As for the experimental part:
as §1
Qualitative and quantitative efficacy of the test mix against biofilm of Streptococcus mutans and Streptococcus sorbinus was evaluated by the commonly used crystal violet (CV) staining method supported by alamarBlue staining assay (where resazurin, a non-fluorescent indicator dye, is converted to bright red-fluorescent resorufin via the reduction reactions of metabolically active cells and the amount of fluorescence produced is proportional to the number of living cells) for evaluating cellular health, according to guidance of American Society for Microbiology and manufacturer's protocol to establish MBEC (Minimal Biofilm Eradication Concentration) and MBBC (Minimal Biofilm Biocidal Concentration) values. Briefly, 1×10^7 CFU/ml from homogeneous bacterial culture in BHI broth containing 1% sucrose, as a standard approach, was inoculated into saliva-coated 96-well plates and supplemented with the test mix. […]
On the technique in general: Resazurin is reduced to fluorescent resorufin, in cell work by metabolically active cells.

Experiment [4] relates to Streptococcus mutans and Streptococcus sorbinus. In words: Bactericidal effect, broth macro-dilution combined with plating assay after 24 h. The note with it: 10 μg/ml amoxicillin (FIG. 7B). The method, then: as §1
The plates were then incubated at 37° C. with 5% CO2 and bacterial re-growth was assessed after 24 h. The entire experiment was repeated three times for each strain. Control cultures were treated with DMSO (i.e., 0.1-0.4% v/v) alone or amoxicillin (i.e. 10 μg/ml).

With `CC1(C)S[C@@H]2[C@H](NC(=O)[C@H](N)c3ccc(O)cc3)C(=O)N2[C@H]1C(=O)O` [amoxicillin], in experiment [1], the bacteriostatic effect was determined as 100%. Also, the “preventive effect on biofilm formation” value in experiment [2] is recorded as “approximately 99%”. Also, the “biocidal effect on pre-existing biofilm” value in experiment [3] was “approximately 20%”. Besides, in experiment [4], the bactericidal effect amounted to 100%.
